Results taken from US11104684B2, “Dimers of covalent NFKB inhibitors” (BOARD OF REGENTS OF THE UNIVERSITY OF NEBRASKA, priority 2016, dated 2021).

Experiments:
A2780 cells = experiment: Cell viability assay (PrestoBlue, 72 hour drug incubation); format: cell-based; conditions: 72 hour incubation, growth inhibition; for IC50: Homo sapiens
Procedure: (§1) MiaPaCa2, A2780, and OVCAR5 cells were plated at 4000 cells/well in a 96-well plate and allowed to adhere overnight. The following day, cells were treated with compounds using ˜10-fold dilutions starting at 1000 nM. PrestoBlue reagent (Invitrogen #A13262) was added to cells after 72 hour drug incubation to assess the growth inhibition. Fluorescence excitation/emission was measured at 560/590nM using a SpectraMax M5^e instrument. Growth inhibition was calculated using 100-[100*(Samples-T0)/(T100-T0)]. T0 is the vehicle control reading immediately following drug addition and T100 is the control reading at the end of 72 hour incubation.

OVCAR5 cells = experiment: as above; format: cell-based; conditions: growth inhibition; for IC50: Homo sapiens, OVCAR-5, 72 hour incubation
Procedure: as §1

MiaPaCa2 cells = experiment: as above; format: cell-based; conditions: Homo sapiens, MIA PaCa-2, 72 hour incubation, growth inhibition
Procedure: as §1

[1] = system: non-transformed HGSC precursor fallopian tube epithelial (FTE) cells FT282; experiment: Growth inhibition in non-transformed fallopian tube epithelial cells; format: cell-based; conditions: for IC50: Epithelial cell, non-transformed FT282 cells
Procedure: Monomeric compound 19, 36-252, and 36-242 were evaluated in non-transformed HGSC precursor fallopian tube epithelial (FTE) cells FT282.

[2] = system: proteins in the IKK complex (A2780 cells); experiment: Western blot analysis of crosslinking; format: cell-based; conditions: for crosslinking (high molecular weight bands): A2780 cells, 10 pM, 2 hours
Procedure: Crosslinking of proteins in the IKK complex was studied as follows. A2780 cells were treated with 10 pM of analog 19 or 36-252 and incubated for 2 hours.
Cells were washed with cold 1×PBS 3 times and scraped before being lysed by a buffer containing the following: 50 mM Tris, 100 mM NaCl, 1% NP-40, […], 20% SDS, 20×PPl (Na3VO4, NAF, β-glycerophosphate) and 1 mmol/L PMSF. After collection, samples were incubated on ice for 30 minutes and vortexed in 15 minute intervals. Samples were then centrifuged at 14,000rpm for 10 minutes at 4° C. and supernatant was collected. Protein quantification was determined by BCA Protein Assay (Pierce #23225). 20-40ug protein samples were run on 4-15% gradient gels (BioRad) in 1×TRIS-Glycine-SDS Buffer (Research Products International Corporation #T32080) at 120V for -60 minutes and separated by SDS-page electrophoresis. Samples were transferred to a PVDF membrane by semi-dry transfer method (ThermoScientific #35035) run at 18V for ˜35 minutes. Membranes were blocked in 5% milk diluted in 1×-Tris Buffered Saline with 0.1% Tween (1×TBST) for 1 hour at room temperature rocking at low speed. Primary antibodies were diluted in 5% milk in 1×TBST and were rocked gently overnight in 4° C. Membranes were incubated with the appropriate HRP-conjugated secondary antibody for 1 hour at room temperature while gently rocking. 3 washes (10 minute) with 1×TBST occurred before and after secondary antibody. ECL Prime (GE Healthcare #RPB2236) was used to detect protein expression

ovarian cancer cells = experiment: 3-day growth assay; format: cell-based
From the text: In the same assay, reduced compound 36-297.

OVCAR5 SP cells = experiment: Side population analysis (Hoechst 33342, flow cytometry); conditions: 60 μM, 15 min at 37° C.
Procedure: (§2) Hoechst 33342 dye (5 μg) was added to each tube and incubated for 45 min at 37° C. Tubes were vortexed slightly after every 5 min. Cells were resuspended in a single cell suspension after centrifugation and kept on ice before acquisition. The side-population was measured by flow cytometry.

[3] = system: caspase 3/7 activity in HGSC cell lines; experiment: Caspase 3/7 luciferase assay (apoptosis); format: cell-based; conditions: 1 μM, 6 hours, five HGSC cell lines
Procedure: To determine the effect of 36-252 on apoptosis, a small panel of HGSC cell lines was treated with 1 μM 36-252 for 6 hours (1 μM of flavopiridol was used as a positive control). Caspases are a class of cysteine proteinases that are activated during apoptosis and measuring caspase activity is routinely used to detect activation of apoptotic signaling. Activation of caspase 3/7 was assessed using a luciferase assay.
2500 cells were plated in a 384-well black walled clear bottom plate at 2,500 cells per well in […] per well in the presence of 4.5 μM doxycycline. Cells were incubated overnight to adhere to plate. After cells were treated and plate was allowed to incubate, Caspase-glo (Promega G8093) reagent was added and the plate was allowed to incubate for 30 min. The plate was then read for luminescence at 1000 ms. Presto-blue was added at a volume of 1/10 total volume per well (2.5μL) and cells were allowed to incubate for 10 min. The plate was then read for fluorescence at 560ex/590em. Values were calculated by: ([Luminescence*100]/Fluorescence)/DMSOavg.

[4] = system: TNF-α-induced NFκB activity in A549 luciferase cells; experiment: kB-luciferase assay; format: cell-based; conditions: 20, 4, and 0.8 pM for 2 hours, then TNF-a
Procedure: A549 luciferase cells were seeded in white 96-well plates at a density of 50,000 cells per well and incubated overnight. Cells were stimulated with 20 ng/mL TNFα (Panomics) for 3 hours. AlamarBlue (abSerotec) was added (which served as a control for seeding and viability) and the cells were incubated for 3 additional hours. ONE-Glo Luciferase reagent (Promega) was added to each well and cells were incubated at room temperature for an additional 10 minutes before luminescence was measured at 1000 ms integration on a SpectraMax M5e plate reader.
The effect 36-252 and 36-297 on NFκB driven gene expression was evaluated using a cancer cell line specifically designed to monitor the activity of NFκB in response to TNF-α. Cells were seeded onto 96-well plates and allowed to attach overnight. The cells were treated with 36-252 and 36-297 (20, 4, and 0.8 pM) for 2 hours, followed by TNF-a for an additional 6 hours. Under multiplexing conditions the cells were assayed for viability using Alamar Blue (Ab Serotec) and the NFκB transcription activity using the ONE-Glo luciferase system (Promega).

[5] = Dose limiting toxicities / MTD study; format: in vivo
Procedure: Six to eight-week-old C57 Albino mice (18-22 grams) were used in this study and were randomly assigned. For MTD studies, 3 mice were randomly assigned to six groups. Animals (Group 1-6) received a single dose of (0, 1, 5, 10, 20 and 100 mg/Kg in […] neat DMSO) of 36-252 via intraperitoneal injection. Mice were sacrificed after 48 hours, and blood and serum samples were subjected to hematology and clinical chemistry analyses. For group 7, a 6-day, 5 mg/kg/day study was carried out followed by submission of samples for hematology and clinical chemistry analyses.
In the phase I study, the lethal dose or maximum tolerated dose of 36-252 was evaluated. […] In the phase II study, three mice at 5 mg/kg/day were administered intraperitoneally for six days.

A2780 SP cells = experiment: Side population analysis (Hoechst 33342, flow cytometry); conditions: 60 μM, 15 min at 37° C.
Procedure: as §2

[6] = system: high grade serous carcinoma (HGSC) ovarian cancer cell lines; experiment: Growth inhibition in a panel of HGSC ovarian cancer cell lines; format: cell-based
Procedure: The IC50 value of all three inhibitors was greater than 20 μM in this cell line.

[7] = mouse, in vivo, ip, 5 mg/kg/day
[8] = panel of HGSC ovarian cancer cell lines

Structure (SMILES)	IC50 (A2780 cells) [µM]	IC50 (OVCAR5 cells) [µM]	IC50 (MiaPaCa2 cells) [µM]	further results
C=C1CC2(OC1=O)C(=O)N(CCCCCCCCCN1C(=O)C3(CC(=C)C(=O)O3)c3ccccc31)c1ccccc12 (centres unmarked) [Compound 36-204]	1.08 ± 0.01	0.48 ± 0.06	2.16	
C=C1CC2(OC1=O)C(=O)N(CCN1C(=O)C3(CC(=C)C(=O)O3)c3ccccc31)c1ccccc12 (centres unmarked) [Compound 40-059]	0.42 ± 0.04	0.32 ± 0.02		
C=C1CC2(OC1=O)C(=O)N(CCCN1C(=O)C3(CC(=C)C(=O)O3)c3ccccc31)c1ccccc12 (centres unmarked) [Compound 36-286]	0.23 ± 0.02	0.09 ± 0.01		
C=C1CC2(OC1=O)C(=O)N(CCCCCCCCCCCN1C(=O)C3(CC(=C)C(=O)O3)c3ccccc31)c1ccccc12 (centres unmarked) [Compound 36-258]	0.77 ± 0.14	0.83 ± 0.12		
C=C1CC2(OC1=O)C(=O)N(CCCCCCCCCCN1C(=O)C3(CC(=C)C(=O)O3)c3ccccc31)c1ccccc12 (centres unmarked) [Compound 36-256]	0.49 ± 0.06	0.41 ± 0.06	1.47	
C=C1CC2(OC1=O)C(=O)N(CCCCCCCN1C(=O)C3(CC(=C)C(=O)O3)c3c(C)ccc(C)c31)c1c(C)ccc(C)c12 (centres unmarked) [Compound 36-280]	0.35 ± 0.05	0.37 ± 0.04		
C=C1CC2(OC1=O)C(=O)N(Cc1ccc(CN3C(=O)C4(CC(=C)C(=O)O4)c4ccccc43)cc1)c1ccccc12 (centres unmarked) [Compound 40-014]	0.31 ± 0.02	0.18 ± 0.01		
C=C1CC2(NC1=O)C(=O)Nc1ccccc12 (centres unmarked) [Compound 25-4]	0.99 ± 0.11	3.13 ± 0.55	6.08	
C=C1CC2(OC1=O)C(=O)N(CCCCCN1C(=O)C3(CC(=C)C(=O)O3)c3ccccc31)c1ccccc12 (centres unmarked) [Compound 36-202]	0.29 ± 0.04	0.09 ± 0.01	0.91	
C=C1CC2(OC1=O)C(=O)N(CCCCCCCCN1C(=O)C3(CC(=C)C(=O)O3)c3ccccc31)c1ccccc12 (centres unmarked) [Compound 36-254]	0.6 ± 0.07	0.32	1.7	
C=C1CC2(NC1=O)C(=O)N(CCCCN1C(=O)C3(CC(=C)C(=O)N3)c3ccccc31)c1ccccc12 (centres unmarked) [Compound 40-038]	0.4 ± 0.06	0.2 ± 0.04		
CC1CC2(OC1=O)C(=O)N(CCCCCCCN1C(=O)C3(CC(C)C(=O)O3)c3ccccc31)c1ccccc12 (centres unmarked) [Compound 36-297]				IC50 (μM) A2780 (A2780 cells): Inactive; IC50 (μM) OVCAR5 (OVCAR5 cells; 72 hour incubation): Inactive
C=C1CC2(OC1=O)C(=O)Nc1ccccc12 (centres unmarked) [Compound 19]				IC50 [1]: > 20000 nM; crosslinking (high molecular weight bands) [2]: High molecular weight bands in the NFκB and IKBα blots were observed
C=C1CC2(OC1=O)C(=O)N(CCCCCCCCCCCCN1C(=O)C3(CC(=C)C(=O)O3)c3ccccc31)c1ccccc12 (centres unmarked) [Compound 36-242]	0.5 ± 0.06	0.47 ± 1.29	1.94	IC50 [1]: > 20000 nM; potency relative to monomeric compound 19 (ovarian cancer cells): 10 fold
C=C1CC2(OC1=O)C(=O)N(CCCCCCN1C(=O)C3(CC(=C)C(=O)O3)c3ccccc31)c1ccccc12 (centres unmarked) [Compound 36-239]	0.7 ± 0.09	0.3 ± 0.02	1.05	
C=C1CC2(OC1=O)C(=O)N(CCCCCCCN1C(=O)C3(CC(=C)C(=O)O3)c3ccccc31)c1ccccc12 (centres unmarked) [Compound 36-252]	0.32	0.32	0.76	SP cells eliminated, OVCAR5 (OVCAR5 SP cells): > 85%; IC50 [1]: > 20000 nM; apparent therapeutic index ([1]; FT282 IC50 vs average HGSC IC50): greater than 25; caspase 3/7 activity [3]: Increased caspase 3/7 activity was seen in three of the five HGSC cell lines; inhibition of NFκB transcription activity [4]: Dose-dependent inhibition was observed; Treated/Alive ([5]; 1 mg/Kg, 1 dose, intraperitoneal, mice): (3/3); hematological analysis (WBC, RBC, hemoglobin) ([5]; mouse, in vivo): no significant differences in relative WBC, RBC, or hemoglobin numbers; overt toxicity ([5]; mouse, in vivo, 100 mg/kg): no sign of overt toxicity was observed; mean body weight [5, 7]: nor was any statistical difference in mean body weight observed; mortality and clinical levels [5, 7]: No mortality or abnormal clinical levels were observed; SP cells eliminated, A2780 (A2780 SP cells): > 98%; IC50 ([6]; average over HGSC cell lines): 780 nM; potency compared with 19 and 36-242 [6, 8]: more potent than analog 19 and a dimer with a 12-carbon linker 36-242; potency in HGSC panel [6, 8]: sub μM; crosslinking (high molecular weight bands) [2]: High molecular weight bands in the NFκB and IKBα blots were observed; bands in time course study ([2]; time course study): a band between 150 and 250 kDa in addition to the IKBα-NFκB bands; protein degradation / PARP cleavage ([2]; time course study): degradation of IKK α/β and PARP cleavage
